Source: patent US20230125249A1 (FIRMENICH SA, priority 2017, published 2023)

Assays:
OR5AN1 allele 4 = test: Cell based assay of hypofunctional OR5AN1 allele 4 with and without enhancer; set-up: species or system human; details: allele 4, presence vs absence of enhancer
[1] = biological target: T1, OR5AN1 olfactory receptor (Homo sapiens, UniProt Q8NGI8); test: Dose-response of individual candidate alone (intrinsic agonist activity) on OR5AN1; type: cell-based
T1 construct: expressed in transfected cells
T1 sequence (Q8NGI8 1-311): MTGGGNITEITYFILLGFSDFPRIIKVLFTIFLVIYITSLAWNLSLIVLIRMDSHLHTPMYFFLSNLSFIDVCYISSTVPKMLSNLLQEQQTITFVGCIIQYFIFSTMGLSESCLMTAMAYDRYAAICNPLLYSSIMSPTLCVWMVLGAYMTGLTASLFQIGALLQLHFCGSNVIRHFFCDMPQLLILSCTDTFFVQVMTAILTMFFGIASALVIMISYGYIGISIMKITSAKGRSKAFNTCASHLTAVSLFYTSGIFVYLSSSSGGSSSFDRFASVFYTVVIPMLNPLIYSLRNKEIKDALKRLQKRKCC
Experimental: 15 candidates, marked as “enhancement” in Table 2 were identified. Strikingly, 80% of these putative enhancers (12/15) belonged to the same class of chemicals: unsaturated aliphatic aldehydes. Next, two parallel dose-response experiments to confirm the true enhancement properties of the potential candidates were performed. First, a dose-response of each individual candidate was performed to determine if it was an agonist by itself. Second, a MUSCENONE® dose-response curve in the presence and absence of a 250 μM concentration of the putative modulator was assessed for EC50 shifts.

[2] = biological target: T1, OR5AN1 olfactory receptor; test: Allosteric EC50 shift analysis: MUSCENONE® dose response with serial concentrations of enhancer; type: cell-based
Experimental: (§1) The level of enhancement of the OR5AN1 olfactory receptor activation was evaluated at distinct concentrations of the enhancer. […] The curves were obtained by applying the simplified Allosteric EC50 shift effect equation (available in Prism5, v. 5.02) derived from the ternary complex interaction model.

OR5AN1 allele 3 = test: Cell based assay of hypofunctional OR5AN1 allele 3 with and without enhancer; set-up: species or system human; details: allele 3, presence vs absence of enhancer
[3] = biological target: T1, OR5AN1 olfactory receptor; test: MUSCENONE®/musk dose-response on OR5AN1 in presence and absence of putative modulator (EC50 shift, span); type: cell-based; details: enhancer at 250 μM, FIG. 3A
Experimental: Next, two parallel dose-response experiments to confirm the true enhancement properties of the potential candidates were performed. First, a dose-response of each individual candidate was performed to determine if it was an agonist by itself.
The resulting enhancement was quantified by means of EC50-fold shift (potency increase) and the efficacy span ratio (efficacy increase).
The EC50-fold shift was obtained by dividing the EC50 of MUSCENONE® +compound by the reference EC50 MUSCENONE® alone. The span ratio was obtained by dividing the span of MUSCENONE®+compound by the reference span of MUSCENONE® alone.

Olfr1440 = biological target: T2, Olfr1440 (Mus musculus, UniProt Q8VFV4); test: Control enhancement experiment on mouse ortholog receptor; type: cell-based
T2 construct: expressed in transfected cells
T2 sequence (Q8VFV4 1-315): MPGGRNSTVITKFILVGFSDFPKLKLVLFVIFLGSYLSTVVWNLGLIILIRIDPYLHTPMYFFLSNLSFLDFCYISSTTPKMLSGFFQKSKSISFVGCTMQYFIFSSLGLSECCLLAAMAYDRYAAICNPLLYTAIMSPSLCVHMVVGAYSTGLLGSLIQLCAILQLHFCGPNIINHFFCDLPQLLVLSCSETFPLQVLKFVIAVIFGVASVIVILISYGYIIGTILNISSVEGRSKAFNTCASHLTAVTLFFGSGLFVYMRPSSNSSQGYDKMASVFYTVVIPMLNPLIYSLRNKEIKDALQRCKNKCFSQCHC
Experimental: as §1
Furthermore and as a control, a similar experiment was performed on the mouse MUSCENONE® responsive odorant receptor Olfr1440, the ortholog of OR5AN1.

## CCCCCCCCCC/C=C/C=O [tridecylenic aldehyde]
OR5AN1 allele 4
  Activity span-ratio: 2.16
[1]
  Activation of OR5AN1 by the compound by itself: did not activate the OR5AN1 olfactory receptor by itself
[1]; above approximately 100 μM
  Activation by compound alone relative to the MUSCENONE® activation window: less than 8%
[2]; Allosteric EC50 shift model, enhancer 0 to 1 mM
  α (cooperativity factor): 15.7
[2]; read-out: KB (equilibrium dissociation constant)
  Kb: 259 µM
OR5AN1 allele 3
  Activity span-ratio: 2.02
[3]
  Maximal activation level (span) of MUSCENONE®: increased span
Olfr1440
  Effect on Olfr1440 MUSCENONE®-induced activation: slight inhibition
